A word on the AC50: it is the concentration giving half of the maximal activity seen. Usually EC50 stands for the concentration giving half of the maximal effect. Usually IC50 stands for the concentration at which inhibition is half-maximal. One may read the CC50 as the concentration that lowers cell viability or growth by half.

Calls of active or inactive are those of the source.

Test [1] concerns HEK293. Kind of test: EBV LMP1 TES2 canonical NF-kB signalling blockers – cell-based, HEK293, luciferase, cherry-pick, dose response (AID 588343). As to conditions: Homo sapiens. In kind it is functional.
Test [2] has as its target Latent membrane protein 1 (Human herpesvirus 4 (strain B95-8), UniProt P03230). Kind of test: LMP1 TES1 pathway selectivity over dsRED control – imaging, HEK293T, dual-color eGFP/dsRED, cherry-picks, selectivity assay for LMP1 NF-kB inhibitor project, dose response (AID 588398). In kind it is functional, cell-based.
Test [3] concerns HEK293. The experiment in a line: inhibition of NOD1-driven NF-kB reporter – cell-based, luminescence, uHTS, primary screen (AID 1578). In kind it is functional. As to conditions: Homo sapiens.
The subject of test [4] is Streptococcus sp. 'group A'. The experiment in a line: Streptococcus pyogenes SK(-)GAS viability under kanamycin – luminescence, BacTiterGlo, confirmation, counter-screen for streptokinase expression inhibitor project, dose response (AID 1900). In kind it is functional, organism-based. (Counterscreens check selectivity or assay interference.)
Test [5] concerns HEK293. The experiment in a line: cells. In kind it is functional, cell-based. As to conditions: Homo sapiens.
For another test, the target named is T1, Streptokinase A (Streptococcus pyogenes serotype M1, UniProt P10520).
T1 sequence (P10520 whole entry): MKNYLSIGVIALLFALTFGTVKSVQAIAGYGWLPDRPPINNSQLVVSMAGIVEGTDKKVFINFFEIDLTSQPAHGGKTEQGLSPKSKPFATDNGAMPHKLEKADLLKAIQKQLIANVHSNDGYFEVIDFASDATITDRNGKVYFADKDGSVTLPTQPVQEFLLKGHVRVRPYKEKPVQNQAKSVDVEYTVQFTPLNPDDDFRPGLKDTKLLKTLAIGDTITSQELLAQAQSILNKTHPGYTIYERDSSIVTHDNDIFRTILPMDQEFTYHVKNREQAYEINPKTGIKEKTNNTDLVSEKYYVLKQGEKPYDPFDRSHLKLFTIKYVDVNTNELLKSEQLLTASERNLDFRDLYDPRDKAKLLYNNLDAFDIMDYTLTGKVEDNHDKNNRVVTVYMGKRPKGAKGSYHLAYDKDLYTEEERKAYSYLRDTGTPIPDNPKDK
The experiment in a line: viability-normalized secreted streptokinase activity reduction – plasminogen activation absorbance, OD405, dose response (AID 1914).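 Note: secreted streptokinase activity via plasminogen activation per viability signal from cell pellet.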 In kind it is functional, Streptococcus pyogenes M1 GAS.

The test system of test [6] is HEK293. Kind of test: cells. In kind it is functional, cell-based. As to conditions: Homo sapiens. The source holds these as a separate data set.
Test [7] is described as follows: CCR5-tropic HIV-1 fusion blockers – cell-based, CCR5-tropic Env, dose response (AID 2279). In kind it is functional.
The test system of test [8] is HEK293. The experiment in a line: NOD2 signaling inhibitors in MDP-stimulated cells, cell-based, uHTS, luminescence (AID 2001). In kind it is functional. As to conditions: Homo sapiens.
A further test concerns Streptococcus. The experiment in a line: GAS UMAA2166 growth inhibition – luminescence, BacTiterGlo, counter-screen for streptokinase expression inhibitor project, dose response (AID 1915).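 Note: potency for reduction of bacterial viability or growth.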 In kind it is functional, organism-based.
A further test has as its target Cysteine protease ATG4B (Homo sapiens, UniProt Q9Y4P1). In kind it is functional.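 Note: Fluorescence-based dose-response confirmation assay measuring inhibition of ATG4B activity.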
A further test has as its target Phospholipase A2 (Homo sapiens, UniProt P04054). In kind it is functional.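 Note: confirmatory dose-response counterscreen on phospholipase A2, testing hits that came from an ultra-high-throughput screen for ATG4B inhibitors.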
In a further test the test system is Vero. Kind of test: viability of Vero cells under compound – cytotoxicity control for flavivirus capping enzyme inhibitors (AID 588742). In kind it is functional. As to conditions: Chlorocebus sabaeus.
In the next test the target is Genome polyprotein (dengue virus type 2, UniProt P29990). The experiment in a line: flavivirus cap methylation enzyme inhibition – biochemical, confirmation dose response, primary screen (AID 588689). In kind it is functional.
In test [9] the test system is INS1. The experiment in a line: suppression of cytokine-induced beta-cell apoptosis – INS-1E, caspase luminescence, dry powder, beta-cell apoptosis inhibitor project, dose response (AID 488848). In kind it is functional, cell-based. As to conditions: Rattus norvegicus.
The test system of test [10] is INS1. The experiment in a line: suppression of NO production in INS-1E cells – cell-based, Griess absorbance, dry powder, set 2, dose response (AID 488868). As to conditions: Rattus norvegicus. In kind it is functional.
The next test addresses Phospholipase D1 (Homo sapiens, UniProt Q13393). Kind of test: cellular phospholipase D1 inhibition IC50 – cell-based, dose response (AID 602151).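 Note: cellular PLD1 assay in Calu-1 cells stimulated with PMA.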 In kind it is functional.
Another test concerns the target Phospholipase D2 (Homo sapiens, UniProt O14939). The experiment in a line: cellular phospholipase D2 inhibition IC50 – cell-based, dose response (AID 602147).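 Note: cellular assay in HEK293 cells overexpressing GFP-tagged PLD2.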 In kind it is functional.
Test [11] has as its target T2, CAAX prenyl protease 2 (Saccharomyces cerevisiae S288c, UniProt Q03530).
T2 sequence (Q03530 whole entry): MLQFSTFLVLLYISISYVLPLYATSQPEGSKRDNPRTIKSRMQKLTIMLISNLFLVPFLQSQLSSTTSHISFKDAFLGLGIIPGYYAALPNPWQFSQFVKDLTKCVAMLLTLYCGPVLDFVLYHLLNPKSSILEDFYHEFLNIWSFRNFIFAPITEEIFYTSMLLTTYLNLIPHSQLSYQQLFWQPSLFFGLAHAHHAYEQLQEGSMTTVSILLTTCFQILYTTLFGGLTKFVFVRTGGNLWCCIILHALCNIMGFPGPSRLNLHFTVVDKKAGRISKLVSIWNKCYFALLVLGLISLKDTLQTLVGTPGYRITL
In kind it is biochemical.

The target of test [12] is T2, CAAX prenyl protease 2. Kind of test: inhibition of Rce1p peptide cleavage – biochemical, plate reader, dry powder retest, dose response (AID 588851).

Chain of Genome polyprotein (P29990 2492-3391 limits assumed): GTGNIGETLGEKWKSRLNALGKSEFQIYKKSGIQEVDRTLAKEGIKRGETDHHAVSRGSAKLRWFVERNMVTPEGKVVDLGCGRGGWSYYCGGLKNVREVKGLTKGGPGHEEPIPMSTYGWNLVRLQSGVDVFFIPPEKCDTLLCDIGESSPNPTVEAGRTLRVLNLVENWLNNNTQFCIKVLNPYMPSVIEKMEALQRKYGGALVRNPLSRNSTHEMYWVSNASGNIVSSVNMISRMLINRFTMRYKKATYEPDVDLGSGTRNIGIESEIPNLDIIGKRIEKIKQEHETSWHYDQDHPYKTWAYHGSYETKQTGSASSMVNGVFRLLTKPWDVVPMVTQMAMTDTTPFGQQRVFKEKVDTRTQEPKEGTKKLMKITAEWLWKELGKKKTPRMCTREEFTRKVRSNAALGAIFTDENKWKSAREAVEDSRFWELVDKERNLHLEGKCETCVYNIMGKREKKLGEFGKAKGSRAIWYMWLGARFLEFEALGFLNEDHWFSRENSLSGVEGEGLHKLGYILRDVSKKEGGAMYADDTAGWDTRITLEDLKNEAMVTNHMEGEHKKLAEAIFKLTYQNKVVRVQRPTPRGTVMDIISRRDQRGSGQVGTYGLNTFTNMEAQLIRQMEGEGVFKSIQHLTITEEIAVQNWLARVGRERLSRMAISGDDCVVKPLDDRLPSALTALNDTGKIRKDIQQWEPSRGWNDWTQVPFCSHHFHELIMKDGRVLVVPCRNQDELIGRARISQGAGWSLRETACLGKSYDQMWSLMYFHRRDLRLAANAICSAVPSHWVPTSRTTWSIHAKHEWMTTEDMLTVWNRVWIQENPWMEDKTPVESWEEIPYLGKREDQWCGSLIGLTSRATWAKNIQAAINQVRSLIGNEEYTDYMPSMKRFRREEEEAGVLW
Chain of Phospholipase A2 (P04054 whole entry): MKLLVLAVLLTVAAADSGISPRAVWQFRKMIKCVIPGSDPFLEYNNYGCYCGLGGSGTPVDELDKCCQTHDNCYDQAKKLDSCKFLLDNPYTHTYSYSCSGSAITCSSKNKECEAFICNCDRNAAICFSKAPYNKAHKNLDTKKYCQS
Chain of Phospholipase D1 (Q13393 whole entry): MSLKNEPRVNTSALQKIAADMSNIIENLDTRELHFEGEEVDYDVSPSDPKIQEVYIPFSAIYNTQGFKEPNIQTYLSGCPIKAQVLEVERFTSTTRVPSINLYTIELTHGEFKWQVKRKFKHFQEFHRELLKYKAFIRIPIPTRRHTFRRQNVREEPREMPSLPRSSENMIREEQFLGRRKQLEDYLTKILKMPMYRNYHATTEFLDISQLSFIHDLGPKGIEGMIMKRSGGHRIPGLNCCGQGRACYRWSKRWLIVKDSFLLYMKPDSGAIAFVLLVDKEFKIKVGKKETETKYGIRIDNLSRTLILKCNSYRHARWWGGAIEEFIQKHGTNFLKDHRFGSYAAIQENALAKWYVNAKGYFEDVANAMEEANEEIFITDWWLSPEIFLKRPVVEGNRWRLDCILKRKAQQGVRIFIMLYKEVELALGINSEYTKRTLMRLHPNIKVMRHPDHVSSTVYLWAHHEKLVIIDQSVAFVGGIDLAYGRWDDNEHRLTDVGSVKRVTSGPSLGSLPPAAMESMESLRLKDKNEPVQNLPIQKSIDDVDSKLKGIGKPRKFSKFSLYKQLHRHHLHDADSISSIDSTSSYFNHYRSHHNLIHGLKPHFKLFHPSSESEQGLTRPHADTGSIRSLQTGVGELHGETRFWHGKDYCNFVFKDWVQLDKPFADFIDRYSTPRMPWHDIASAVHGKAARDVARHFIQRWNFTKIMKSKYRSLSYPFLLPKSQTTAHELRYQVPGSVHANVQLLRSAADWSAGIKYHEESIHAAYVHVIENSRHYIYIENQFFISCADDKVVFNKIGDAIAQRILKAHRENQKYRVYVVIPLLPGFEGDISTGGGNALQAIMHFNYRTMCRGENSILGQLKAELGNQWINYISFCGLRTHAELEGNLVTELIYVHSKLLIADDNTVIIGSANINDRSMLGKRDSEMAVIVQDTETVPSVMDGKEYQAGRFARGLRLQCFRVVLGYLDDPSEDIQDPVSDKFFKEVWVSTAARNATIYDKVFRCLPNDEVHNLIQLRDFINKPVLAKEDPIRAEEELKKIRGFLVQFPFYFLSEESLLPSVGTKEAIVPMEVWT
Chain of Cysteine protease ATG4B (Q9Y4P1 whole entry): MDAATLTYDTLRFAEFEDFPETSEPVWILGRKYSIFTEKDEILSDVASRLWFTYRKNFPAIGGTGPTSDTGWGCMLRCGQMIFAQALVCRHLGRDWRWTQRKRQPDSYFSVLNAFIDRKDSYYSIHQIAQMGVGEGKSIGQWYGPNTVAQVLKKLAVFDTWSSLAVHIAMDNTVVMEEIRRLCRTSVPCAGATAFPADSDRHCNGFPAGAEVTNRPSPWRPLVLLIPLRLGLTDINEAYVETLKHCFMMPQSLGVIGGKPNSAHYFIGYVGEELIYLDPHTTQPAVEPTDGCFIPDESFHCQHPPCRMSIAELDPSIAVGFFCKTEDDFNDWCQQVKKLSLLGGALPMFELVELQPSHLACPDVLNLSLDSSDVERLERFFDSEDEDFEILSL
Chain of Phospholipase D2 (O14939 whole entry): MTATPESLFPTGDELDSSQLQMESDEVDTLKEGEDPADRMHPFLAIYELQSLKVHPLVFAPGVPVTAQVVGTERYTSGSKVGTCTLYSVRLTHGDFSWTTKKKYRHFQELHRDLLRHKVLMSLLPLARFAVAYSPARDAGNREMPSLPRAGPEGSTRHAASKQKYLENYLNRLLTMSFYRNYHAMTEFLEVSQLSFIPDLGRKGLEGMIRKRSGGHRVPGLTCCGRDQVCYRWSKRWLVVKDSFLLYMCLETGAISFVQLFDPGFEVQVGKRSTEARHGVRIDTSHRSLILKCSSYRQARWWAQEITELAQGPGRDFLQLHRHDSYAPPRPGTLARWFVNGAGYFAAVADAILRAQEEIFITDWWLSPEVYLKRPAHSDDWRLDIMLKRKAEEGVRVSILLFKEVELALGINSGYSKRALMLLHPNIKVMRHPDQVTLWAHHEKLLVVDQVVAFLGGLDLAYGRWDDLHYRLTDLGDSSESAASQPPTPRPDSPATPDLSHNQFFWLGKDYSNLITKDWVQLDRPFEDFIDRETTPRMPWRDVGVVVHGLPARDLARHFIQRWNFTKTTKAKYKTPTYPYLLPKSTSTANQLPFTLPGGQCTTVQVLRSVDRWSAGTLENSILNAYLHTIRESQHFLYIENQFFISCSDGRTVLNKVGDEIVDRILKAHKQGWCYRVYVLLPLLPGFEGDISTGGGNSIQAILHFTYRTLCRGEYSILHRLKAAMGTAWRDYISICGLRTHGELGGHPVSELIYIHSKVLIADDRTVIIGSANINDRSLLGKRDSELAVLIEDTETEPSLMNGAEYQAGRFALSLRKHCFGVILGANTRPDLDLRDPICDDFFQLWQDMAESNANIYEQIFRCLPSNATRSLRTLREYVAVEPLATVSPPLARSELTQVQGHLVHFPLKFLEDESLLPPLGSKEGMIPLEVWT
Chain of Latent membrane protein 1 (P03230 whole entry): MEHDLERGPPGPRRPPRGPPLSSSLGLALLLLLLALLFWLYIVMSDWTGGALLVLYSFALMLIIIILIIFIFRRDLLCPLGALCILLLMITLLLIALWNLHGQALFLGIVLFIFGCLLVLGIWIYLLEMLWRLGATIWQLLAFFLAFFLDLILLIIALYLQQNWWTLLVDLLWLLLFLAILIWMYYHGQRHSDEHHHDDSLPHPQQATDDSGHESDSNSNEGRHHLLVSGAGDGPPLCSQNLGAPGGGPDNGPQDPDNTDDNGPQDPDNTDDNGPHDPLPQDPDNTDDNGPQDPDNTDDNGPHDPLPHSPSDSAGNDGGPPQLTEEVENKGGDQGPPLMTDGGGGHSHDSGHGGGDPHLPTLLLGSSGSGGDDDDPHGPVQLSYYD

Turning to `O=C(OC1CCN(CCCl)CC1)C(c1ccccc1)c1ccccc1`, the AC50 in the test on HEK293 [1] is 24.3 µM (active); in test [2] it was 24.2 µM (active).
Turning to `O=C(O)CCn1cc(/C=C/C(=O)c2ccc(Cl)cc2)c(-c2cccc(Br)c2)n1`, the EC50 with HEK293 [3] is 6.52 µM (active); in test [4] it was 4.35 µM (active); on Streptokinase A, 0.874 µM (active); in the test with Streptococcus it was 6.69 µM (active). In addition, the IC50 in the test with HEK293 [5] is 10.6 µM (active); with HEK293 [6] it was 17.9 µM (active); in [7], 27.8 µM (active); in the test on HEK293 [8], 4.06 µM (active); at Cysteine protease ATG4B, 13.5 µM (active); on Phospholipase A2, 8.65 µM (active). Besides, the IC50 at Genome polyprotein is 52.4 µM (active). In addition, the CC50 in the test with Vero was > 40 µM (active).
With `COc1ccc(S(=O)(=O)N(C)C[C@@H]2Oc3c(NC(=O)c4cccc5ccccc45)cccc3C(=O)N([C@@H](C)CO)C[C@H]2C)cc1`, the values for the AC50 in the test on INS1 [9] and in the test with INS1 [10] were > 195 µM (inactive) and 84.8 µM (active), respectively.
For the compound `C[C@@H](CN1CCC(n2c(=O)[nH]c3ccccc32)CC1)NC(=O)c1cc2cc(F)ccc2[nH]1`, the results for the IC50 at Phospholipase D1 and at Phospholipase D2 were 0.001 µM (active) and 0.13 µM (active), respectively.
In the case of `Nc1nonc1-n1nnc(C(=O)N/N=C/c2cccc(Cl)c2)c1CSc1ccc(Cl)cc1`, the AC50 at CAAX prenyl protease 2 [11] is 0.136 µM (active); at CAAX prenyl protease 2 [12], 3.15 µM (active).

The values above are taken from ChEMBL document CHEMBL1201862, “PubChem BioAssay data set” (2004).
